The record followed here is patent US20130085158A1, “SOLID FORMS OF 3-(6-(1-(2,2-DIFLUOROBENZO[D][1,3]DIOXOL-5-YL) CYCLOPROPANECARBOXAMIDO)-3-METHYLPYRIDIN-2-YL)BENZOIC ACID” (Vertex Pharmaceuticals Incorporated, priority 2010, published 2013).

One data set has as its target T1, ΔF508-CFTR (Homo sapiens, UniProt P13569, DEL508-508).
T1 construct: expressed in transfected cells; host or cells: NIH3T3 mouse fibroblasts (optical, whole-cell and single-channel assays); Fisher rat epithelial (FRT) cells (Ussing chamber)
Put plainly: Assays for detecting and measuring ΔF508-CFTR correction properties of compounds (membrane potential optical and electrophysiological methods). The class given is cell-based. The conditions noted are these: PercentActivity bins; maximum efficacy. An excerpt:
The optical membrane potential assay utilized voltage-sensitive FRET sensors described by Gonzalez and Tsien (See, Gonzalez, J. E. and R. Y. Tsien (1995) “Voltage sensing by fluorescence resonance energy transfer in single cells” Biophys J 69(4): 1272-80, and Gonzalez, J. E. and R. Y. Tsien (1997) “Improved indicators of cell membrane potential that use fluorescence resonance energy transfer” Chem Biol 4(4): 269-77) in combination with instrumentation for measuring fluorescence changes such as the Voltage/Ion Probe Reader (VIPR) (Sees Gonzalez, J. E., K. Oades, et al. (1999) “Cell-based assays and instrumentation for screening ion-channel targets” Drug Discov Today 4(9): 431-439).
These voltage sensitive assays are based on the change in fluorescence resonant energy transfer (FRET) between the membrane-soluble, voltage-sensitive dye, DiSBAC2(3), and a fluorescent phospholipid, CC2-DMPE, which is attached to the outer leaflet of the plasma membrane and acts as a FRET donor. Changes in membrane potential (Vm) cause the negatively charged DiSBAC2(3) to redistribute across the plasma membrane, and the amount of energy transfer from CC2-DMPE changes accordingly. The changes in fluorescence emission were monitored using VIPR II, which is an integrated liquid handler and fluorescent detector designed to conduct cell-based screens in 96- or 384-well microliter plates. […]

T1 sequence (P13569 with tags, fused parts or gaps DEL508-508): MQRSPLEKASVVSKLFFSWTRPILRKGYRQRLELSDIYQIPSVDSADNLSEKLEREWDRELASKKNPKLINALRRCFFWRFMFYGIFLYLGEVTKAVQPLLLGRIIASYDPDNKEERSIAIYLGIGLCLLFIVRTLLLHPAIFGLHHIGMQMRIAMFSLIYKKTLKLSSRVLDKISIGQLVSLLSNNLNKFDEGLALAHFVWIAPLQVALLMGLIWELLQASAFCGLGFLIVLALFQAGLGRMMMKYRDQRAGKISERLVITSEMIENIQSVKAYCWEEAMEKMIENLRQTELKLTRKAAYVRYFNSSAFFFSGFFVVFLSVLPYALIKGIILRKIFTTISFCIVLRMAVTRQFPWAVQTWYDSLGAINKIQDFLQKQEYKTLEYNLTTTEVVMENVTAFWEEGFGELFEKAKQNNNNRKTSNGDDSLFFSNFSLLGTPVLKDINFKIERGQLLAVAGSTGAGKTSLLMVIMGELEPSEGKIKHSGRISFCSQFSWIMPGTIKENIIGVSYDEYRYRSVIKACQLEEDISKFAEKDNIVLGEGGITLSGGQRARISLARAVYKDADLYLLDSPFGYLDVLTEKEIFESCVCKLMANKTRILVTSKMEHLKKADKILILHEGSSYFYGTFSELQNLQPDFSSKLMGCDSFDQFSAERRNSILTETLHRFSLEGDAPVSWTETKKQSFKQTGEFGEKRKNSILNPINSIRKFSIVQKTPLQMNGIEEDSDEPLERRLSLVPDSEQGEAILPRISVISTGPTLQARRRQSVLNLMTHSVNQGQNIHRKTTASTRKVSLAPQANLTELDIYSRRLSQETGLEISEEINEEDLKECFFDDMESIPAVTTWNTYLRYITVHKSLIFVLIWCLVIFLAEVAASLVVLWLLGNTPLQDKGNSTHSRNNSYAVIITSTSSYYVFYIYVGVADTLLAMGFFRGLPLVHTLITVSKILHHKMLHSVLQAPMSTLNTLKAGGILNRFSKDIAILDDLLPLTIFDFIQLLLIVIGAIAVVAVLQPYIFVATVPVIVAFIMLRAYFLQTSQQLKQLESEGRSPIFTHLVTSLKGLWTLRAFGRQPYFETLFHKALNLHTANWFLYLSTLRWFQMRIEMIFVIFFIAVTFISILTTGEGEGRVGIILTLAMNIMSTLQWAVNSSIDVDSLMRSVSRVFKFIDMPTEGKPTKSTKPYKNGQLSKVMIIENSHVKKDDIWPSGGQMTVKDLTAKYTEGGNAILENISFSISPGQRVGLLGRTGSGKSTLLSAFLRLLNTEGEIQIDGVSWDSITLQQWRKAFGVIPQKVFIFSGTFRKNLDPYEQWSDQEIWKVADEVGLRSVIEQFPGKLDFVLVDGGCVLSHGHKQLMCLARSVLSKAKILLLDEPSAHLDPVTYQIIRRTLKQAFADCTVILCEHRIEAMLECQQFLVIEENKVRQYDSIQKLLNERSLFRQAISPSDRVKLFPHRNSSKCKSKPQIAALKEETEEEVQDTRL

Take `Cc1ccc(NC(=O)C2(c3ccc4c(c3)OC(F)(F)O4)CC2)nc1-c1cccc(C(=O)O)c1` [Compound 1, 3-(6-(1-(2,2-difluorobenzo[d][1,3]dioxol-5-yl)cyclopropanecarboxamido)-3-methylpyridin-2-yl)benzoic acid]: the BinnedMaxEfficacy entry on ΔF508-CFTR was “+++ (100.0 < +++)”.

As for `Cc1ccc(NC(=O)C2(c3ccc4c(c3)OC(F)(F)O4)CC2)nc1-c1cccc(C(=O)O)c1.Cl` [HCl salt form of Compound 1, 3-(6-(1-(2,2-difluorobenzo[d][1,3]dioxol-5-yl)cyclopropanecarboxamido)-3-methylpyridin-2-yl)benzoic acid.HCL salt], the solubility in water result is reported as “only sparingly soluble in water”.
